The subject of one series is ct-DNA. Briefly: UV-Vis absorption titration with ct-DNA (Kb). The following applies: band at 320 nm, cacodylate/NaCl buffer pH 7.25, 1 h. It is filed as binding, calf. The procedure: For the UV–Vis, fluorescence and circular dichroism assays the concentration of ct-DNA was determined on a Varian Cary 100 Scan spectrophotometer from the absorption at 260 nm and the corresponding molar absorptivity of 6600 M^−1 cm^−1 (nucleobase concentration). The stock solutions of the coordination compounds and the free ligands were prepared in cacodylate/NaCl buffer (1 mM cacodylic acid and 20 mM sodium chloride) at pH 7.25. The final samples contained a DMSO concentration of 0.2%.
Absorption titration experiments were carried out by adding increasing concentrations of ct-DNA (0–25 µM) to 10 µM of the compounds in a final volume of 2 mL. The samples were incubated for 1 h at 37 °C, and spectra were collected on a Varian Cary 100 Scan spectrophotometer. For these assays the charge-transfer band of the compounds was followed at 320 nm. The intrinsic binding constant (Kb) was determined from the titration data using Eq. 2:2 DNA/εα-εf=DNA/ε0-εf+1/Kbε0-εf where εa, ε0 and εf are respectively, the molar extinction coefficients of […].

The subject of series [1] is young adult male ICR mice. Briefly: Acute toxicity (LD50), intraperitoneal. It is filed as in vivo, mouse. The following applies: single dose. The procedure: For the acute toxicity assays, young adult male ICR mice with an average weight of 28 g and a variation of no more than ± 3 g were used. The handling of the animals was carried out in accordance with the committee for the care and use of laboratory animals (CICUAL) from the Faculty of Chemistry, UNAM.
A stock solution with a concentration of 25 mg mL^−1 of [Cu(onz)2Cl2] and [Cu(onz)2Br2] was prepared with water for injection. In the case of [Cu(onz)2Br2], 0.1% of DMSO was added. For the pharmacological profile three mice were used for each dose of 1, 10 and 100 mg kg^−1 per compound. For the acute toxicity assays five mice were treated for each dose (10, 50, 75 and 100 mg kg^−1) per compound. […] A detailed clinical observation was made 24 h after administration. The doses were administered intraperitoneally. The data obtained were used to calculate the mean lethal dose using the software Prism 13.0 and SPSS 29.0 [37, 38].
Based on the anti-toxoplasma results the medial lethal dose (LD50) for [Cu(onz)2Cl2] and [Cu(onz)2Br2] were determined intraperitoneally using doses of 10, 50, 75 and 100 mg kg^−1 per compound in young adult male ICR mice.

The next series concerns Entamoeba histolytica. The note with it: cited from earlier work.

`Cc1ncc([N+](=O)[O-])n1CCCl.Cc1ncc([N+](=O)[O-])n1CCCl.[Br][Cu][Br]` [[Cu(cenz)2Br2]]: the Kb with ct-DNA came to 450000 M⁻¹.

For the molecule `Cc1ncc([N+](=O)[O-])n1CC(O)CCl.Cc1ncc([N+](=O)[O-])n1CC(O)CCl.[Cl-].[Cl-].[Cu+2]` (stereo not shown) [[Cu(onz)2Cl2]], the LD50 in series [1] worked out at 49.35 mg/kg.

For `Cc1n(CC(O)CCl)c([N+](=O)[O-])c[n+]1[Cu-2]([Br])([Br])[n+]1cc([N+](=O)[O-])n(CC(O)CCl)c1C` (stereo not shown) [[Cu(onz)2Br2]], the LD50 in series [1] was found to be 83.24 mg/kg. This LD50 lies about 1.7-fold higher than the previous one.

On to `Cc1ncc([N+](=O)[O-])n1CC(O)CCl.Cc1ncc([N+](=O)[O-])n1CC(O)CCl.[Cl][Zn][Cl]` (stereo not shown) [[Zn(onz)2Cl2]], for which the minimal inhibitory concentration (MIC) in the series on Entamoeba histolytica is given as 6.25 µM.

These data come from publication PMC11001709, “Anti-toxoplasma activity and DNA-binding of copper(II) and zinc(II) coordination compounds with 5-nitroimidazole-based ligands” (Journal of Biological Inorganic Chemistry, 2023).
